Patent US5780505A, “Substituted N-arylmethylamino derivatives of cyclobutene-3, 4-diones” (American Home Products Corporation, priority 1997, dated 1998)

test system: Isolated Rat Bladder Strips; assay: Inhibition of contractions in isolated rat bladder strips (KCl-enhanced contractile activity; smooth muscle relaxation); type: cell-based, Sprague-Dawley rats; settings: 0.5 h; isolated rat bladder strips, 15 mM additional KCl, 30 minute challenge; read-out: IC50 (50% inhibition of pre-drug contractile activity)
Excerpt: The smooth muscle relaxing activity of the compounds of this invention was established in accordance with standard pharmaceutically accepted test procedures with representative compounds as follows:
Sprague-Dawley rats (150-200 g) are rendered unconscious by CO2 asphyxiation and then euthanized by cervical dislocation. The bladder is removed into warm (37 deg.C) physiological salt solution (PSS) of the following composition (mM): NaCl, 118.4; KCl, 4.7; CaCl2, 2.5; MgSO4, 4.7; H2 O, 1,2; NaHCO3, 24.9; KH2 PO4, 1,2; glucose, 11.1; EDTA, 0.023; gassed with […]; pH 7.4. The bladder is opened and then dut into strips 1-2 mm in width and 7-10 mm in length. The strips are subsequently suspended in a 10 mL tissue bath under an initial resting tension of 1.5 g. The strips are held in place by two surgical clips one of which is attached to a fixed hook while the other is attached to an isometric force transducer. […] The carbachol is then washed out and the tissue allowed to relax to its resting level of activity. Following a further 30 min period of recovery an additional 15 mM KCl are introduced into the tissue bath. This increase in KCl concentration results in a large increase in the amplitude of spontaneous contractions (and initiation of contractions in previously quiescent strips) superimposed upon a small increase in basal tone. Following stabilization of this enhanced level of contractile activity, incremental increases in the concentration of test compound or vehicle are introduced into the tissue bath. Contractile activity is measured for each compound or vehicle concentration during the last minute of a 30 minute challenge.
The isometric force developed by the bladder strips is measured using a […] to elicit 50% inhibition of pre-drug contractile activity (IC50 concentration) and is calculated from this concentration-response curve.

How did the IC50 turn out when `CCC(C)(C)Nc1c(NCc2c(Cl)cccc2Cl)c(=O)c1=O` [Example 4, 3-(2,6-Dichloro-benzylamino)-4-(1,1-dimethyl-propylamino)-cyclobut-3-ene-1,2-dione] was run?
The IC50 was 280 ± 30 nM.

With `CCC(C)(C)Nc1c(NCc2cc(C)cc(C#N)c2)c(=O)c1=O` [Example 7, 3-([2-(1,1-Dimethyl-propylamino)-3,4-dioxo-cyclobut-1-enylamino]-methyl)-5-methyl-benzonitrile] as the molecule, how does the IC50 read?
Its IC50 is 860 ± 270 nM.

For `Cc1cc(C)c(CNc2c(NC(C)(C)C)c(=O)c2=O)c(C)c1` [Example 9, 3-tert-Butylamino-4-(2,4,6-trimethyl-benzylamino)-cyclobut-3-ene-1,2-dione], which IC50 is on record?
Its IC50 is 1800 ± 700 nM.

How did the IC50 turn out when `CC(C)(C)Nc1c(NCc2c(Cl)cccc2Cl)c(=O)c1=O` [Example 10, 3-tert-Butylamino-4-(2,6-dichloro-benzylamino)-cyclobut-3-ene-1,2-dione] was run?
The IC50 was 1110 ± 410 nM.

Which IC50 does the source give for `Cc1cc(C#N)cc(CNc2c(NC(C)C(C)(C)C)c(=O)c2=O)c1` (stereo not shown) [Example 12, 3-{[3,4-Dioxo-2-(1,2,2-trimethyl-propylamino)-cyclobut-1-enylamino]-methyl}-5-methyl-benzonitrile] here?
Its IC50 is 6600 ± 1600 nM.

Which IC50 does the source give for `COc1cc(OC)c(CNc2c(NC(C)(C)C)c(=O)c2=O)c(OC)c1` [Example 15, 3-tert-Butylamino-4-(2,4,6-trimethoxy-benzylamino)-cyclobut-3-ene-1,2-dione] here?
The IC50 was 11100 ± 400 nM.

For `Cc1cc(C#N)cc(CNc2c(NC(C)(C)C)c(=O)c2=O)c1` [Example 16, 3-[(2-tert-Butylamino-3,4-dioxo-cyclobut-1-enylamino)-methyl]-5-methyl-benzonitrile], which IC50 is on record?
Its IC50 is 2900 ± 100 nM.

How did the IC50 turn out when `COc1ccc(CNc2c(NC(C)(C)C)c(=O)c2=O)c(OC)c1` [Example 17, 3-tert-Butylamino-4-(2,4-dimethoxy-benzylamino)-cyclobut-3-ene-1,2-dione] was run?
Its IC50 is 9600 ± 5700 nM.

How did the IC50 turn out when `CC(C)(C)Nc1c(NCc2ccc(F)cc2F)c(=O)c1=O` [Example 18, 3-tert-Butylamino-4-(2,4-difluoro-benzylamino)-cyclobut-3-ene-1,2-dione] was run?
The IC50 was 2100 ± 900 nM.

With `CC(C)(C)Nc1c(NCc2c(F)cccc2F)c(=O)c1=O` [Example 19, 3-tert-Butylamino-4-(2,6-difluoro-benzylamino)-cyclobut-3-ene-1,2-dione] as the molecule, how does the IC50 read?
Its IC50 is 7500 ± 4500 nM.

For `COc1cccc(CNc2c(NC(C)(C)C)c(=O)c2=O)c1OC` [Example 20, 3-tert-Butylamino-4-(2,3-dimethoxy-benzylamino)-cyclobut-3-ene-1,2-dione], which IC50 is on record?
Its IC50 is 8600 ± 3500 nM.

Which IC50 does the source give for `CC(C)(C)Nc1c(NCc2cc(F)ccc2F)c(=O)c1=O` [Example 21, 3-tert-Butylamino-4-(2,5-difluoro-benzylamino)-cyclobut-3-ene-1,2-dione] here?
The IC50 was 3900 ± 1100 nM.

`COc1cc(CNc2c(NC(C)(C)C)c(=O)c2=O)cc(OC)c1` [Example 22, 3-tert-butylamino-4-(3,5-dimethoxy-benzylamino)-cyclobut-3-ene-1,2-dione] was tested. Which IC50 did it give?
Its IC50 is 25000 ± 10000 nM.

With `Cc1cccc(CNc2c(NC(C)(C)C)c(=O)c2=O)c1C` [Example 23, 3-tert-Butylamino-4-(2,3-dimethyl-benzylamino)-cyclobut-3-ene-1,2-dione] as the molecule, how does the IC50 read?
The IC50 was 2700 ± 300 nM.

How did the IC50 turn out when `CCCCNc1c(NCc2ccc(C#N)cc2CC)c(=O)c1=O` [Example 24, 4-[(2-Butylamino-3,4-dioxo-cyclobut-1-enylamino)-methyl]-3-ethyl-benzonitrile] was run?
Its IC50 is 27100 ± 4000 nM.

For `CCc1cc(C#N)ccc1CNc1c(NC(C)C)c(=O)c1=O` [Example 25], which IC50 is on record?
Its IC50 is 31000 ± 4500 nM.

With `CCc1cc(C#N)ccc1CNc1c(NC(CC)CC)c(=O)c1=O` [Example 26] as the molecule, how does the IC50 read?
Its IC50 is 5200 ± 600 nM.

`CCc1cc(C#N)ccc1CNc1c(N[C@H](C)C(C)(C)C)c(=O)c1=O` [Example 28, 4-{[3,4-Dioxo-2-(1,2,2-trimethyl-propylamino)-cyclobut-1-enylamino]-methyl}-3-ethyl-benzonitrile] was tested. Which IC50 did it give?
The IC50 was 2000 ± 200 nM.

How did the IC50 turn out when `CCC(C)(C)Nc1c(NCc2c(C)cccc2Cl)c(=O)c1=O` [Example 32, 3-(2-chloro-6-methyl-benzylamino)-4-(1,1-dimethyl-propylamino)-cyclobut-3-ene-1,2-dione] was run?
Its IC50 is 4350 ± 4100 nM.

`CCC(C)(C)Nc1c(NCc2c(C)cc(C#N)cc2Cl)c(=O)c1=O` [Example 33, 3-Chloro-4-{[2-(1,1-dimethyl-propylamino)-3,4-dioxo-cyclobut-1-enylamino]-methyl}-5-methyl-benzonitrile] was tested. Which IC50 did it give?
Its IC50 is 160 ± 10 nM.

With `Cc1cc(C#N)cc(Cl)c1CNc1c(N[C@H](C)C(C)(C)C)c(=O)c1=O` [Example 34, 3-Chloro-4-{[3,4-dioxo-2-(1,2,2-trimethyl-propylamino)-cyclobut-1-enylamino]-methyl}-5-methyl-benzonitrile] as the molecule, how does the IC50 read?
Its IC50 is 1900 ± 1100 nM.

With `Cc1cc(Br)cc(C)c1CNc1c(N[C@H](C)C(C)(C)C)c(=O)c1=O` [Example 35, 3-(4-Bromo-2,6-dimethyl-benzylamino)-4-(1,2,2-trimethyl-propylamino)-cyclobut-3-ene-1,2-dione] as the molecule, how does the IC50 read?
Its IC50 is 8900 ± 3000 nM.

Which IC50 does the source give for `CCC(C)(C)Nc1c(NCc2c(C)cc(Br)cc2C)c(=O)c1=O` [Example 37, 3-(4-Bromo-2,6-dimethyl-benzylamino)-4-(1,1-dimethyl-propylamino)-cyclobut-3-ene-1,2-dione] here?
Its IC50 is 1200 ± 1100 nM.

`Cc1cc(C)c(CNc2c(NC(C)(C)C)c(=O)c2=O)c(Cl)c1` [Example 39, 3-tert-Butylamino-4-(2-chloro-4,6-dimethyl-benzylamino)-cyclobut-3-ene-1,2-dione] was tested. Which IC50 did it give?
The IC50 was 710 ± 500 nM.

For `CCC(C)(C)Nc1c(NCc2c(C)cc(C)cc2Cl)c(=O)c1=O` [Example 40, 3-(2-Chloro-4,6-dimethyl-benzylamino)-4-(1,1-dimethyl-propylamino)-cyclobut-3-ene-1,2-dione], which IC50 is on record?
The IC50 was 200 ± 80 nM.

With `C[C@@H](Nc1c(NCc2ccc(C#N)c(Cl)c2)c(=O)c1=O)C(C)(C)C` [Example 42, 2-Chloro-4-{[3,4-dioxo-2-(1,2,2-trimethyl-pronylamino)-cyclobut-1-enylamino]-methyl}-benzonitrile] as the molecule, how does the IC50 read?
Its IC50 is 4700 ± 1200 nM.

Which IC50 does the source give for `CC(C)(C)Nc1c(NCc2ccc(C#N)c(Cl)c2)c(=O)c1=O` [Example 43, 4-[(2-tert-Butylamino-3,4-dioxo-cyclobut-1-enylamino)-methyl]-2-chloro-benzonitrile] here?
The IC50 was 1100 ± 100 nM.

Which IC50 does the source give for `CCC(C)(C)Nc1c(NCc2ccc(C#N)c(Cl)c2)c(=O)c1=O` [Example 44, 2-Chloro-4-{[2-(1,1-dimethyl-propylamino]-3,4-dioxo-cyclobut-1-enylamino)-methyl}-benzonitrile] here?
The IC50 was 260 ± 15 nM.

Which IC50 does the source give for `CCc1cc(CNc2c(NC(C)(C)C)c(=O)c2=O)ccc1C#N` [Example 46, 4-[(2-tert-Butylamino-3,4-dioxo-cyclobut-1-enylamino)-methyl]-2-ethyl-benzonitrile] here?
The IC50 was 6100 ± 3800 nM.

With `CCc1cc(Br)ccc1CNc1c(N[C@H](C)C(C)(C)C)c(=O)c1=O` [Example 47, 3-(4-Bromo-2-ethyl-benzylamino)-4-(1,2,2-trimethyl-propylamino)-cyclobut-3-ene-1,2-dione] as the molecule, how does the IC50 read?
The IC50 was 16700 ± 6200 nM.

How did the IC50 turn out when `CCc1cc(Br)ccc1CNc1c(NC(C)(C)C)c(=O)c1=O` [Example 48, 3-(4-Bromo-2-ethyl-benzylamino)-4-tert-butylamino-cyclobut-3-ene-1,2-dione] was run?
Its IC50 is 270 ± 80 nM.

How did the IC50 turn out when `CCc1cc(Br)ccc1CNc1c(NC(C)(C)CC)c(=O)c1=O` [Example 49, 3-(4-Bromo-2-ethyl-benzylamino)-4-(1,1-dimethyl-propylamino)-cyclobut-3-ene-1,2-dione] was run?
Its IC50 is 1000 ± 600 nM.

same assay, conditions: Rattus norvegicus, 0.5 h; read-out: Percent contraction at 30 μM (C)

For `CCC(CC)Nc1c(NCc2ccc(OC)c(OC)c2)c(=O)c1=O` [Example 14, 3-(3,4-Dimethoxy-benzylamino)-4-(1-ethyl-propylamino)-cyclobut-3-ene-1,2-dione], which percent contraction at 30 µM is on record?
Its percent contraction at 30 µM is 54%.

Which percent contraction at 30 µM does the source give for `Cc1cc(C)c(CNc2c(N[C@H](C)C(C)(C)C)c(=O)c2=O)c(Cl)c1` [Example 38, 3-(2-Chloro-4,6-dimethyl-benzylamino)-4-(1,2,2-trimethyl-propylamino)-cyclobut-3-ene-1,2-dione] here?
Its percent contraction at 30 µM is 200%.

same assay, conditions: Rattus norvegicus; read-out: Percent inhibition at 30 μM (I)

How did the inhibition at 30 µM turn out when `Cc1cc(C#N)cc(CNc2c(NC(C)C(C)(C)C)c(=O)c2=O)c1` (stereo not shown) [Example 12, 3-{[3,4-Dioxo-2-(1,2,2-trimethyl-propylamino)-cyclobut-1-enylamino]-methyl}-5-methyl-benzonitrile] was run?
The inhibition at 30 µM was 37 ± 0.7%.

With `CCC(CC)Nc1c(NCc2cc(C)cc(C#N)c2)c(=O)c1=O` [Example 13, 3-{[2-(1-Ethyl-propylamino)-3,4-dioxo-cyclobut-1-enylamino]-methyl}-5-methyl-benzonitrile] as the molecule, how does the inhibition at 30 µM read?
Its inhibition at 30 µM is 19.1 ± 1.7%.

With `CCC(CC)Nc1c(NCc2ccc(OC)c(OC)c2)c(=O)c1=O` [Example 14, 3-(3,4-Dimethoxy-benzylamino)-4-(1-ethyl-propylamino)-cyclobut-3-ene-1,2-dione] as the molecule, how does the inhibition at 30 µM read?
Its inhibition at 30 µM is 27.2 ± 2.4%.

For `Cc1cccc(Cl)c1CNc1c(N[C@H](C)C(C)(C)C)c(=O)c1=O` [Example 29, 3-(2-Chloro-6-methyl-benzylamino)-4-(1,2,2-trimethyl-propylamino)-cyclobut-3-ene-1,2-dione], which inhibition at 30 µM is on record?
Its inhibition at 30 µM is 38.6 ± 3.6%.

`Cc1cc(C)c(CNc2c(NCC(F)(F)C(F)(F)F)c(=O)c2=O)c(Cl)c1` [Example 41, 3-(2-Chloro-4,6-dimethyl-benzylamino)-4-(2,2,3,3,3-pentafluoro-propylamino)-cyclobut-3-ene-1,2-dione] was tested. Which inhibition at 30 µM did it give?
Its inhibition at 30 µM is 41 ± 2.9%.

Which inhibition at 30 µM does the source give for `CCc1cc(CNc2c(N[C@H](C)C(C)(C)C)c(=O)c2=O)ccc1C#N` [Example 45, 4-[{3,4-Dioxo-2-(1,2,2-trimethyl-propylamino)-cyclobut-1-enylamino]-methyl}-2-ethyl-benzonitrile] here?
The inhibition at 30 µM was 25 ± 2.04%.
